This experiment has as its target T1, purified alkaline phosphatase from human osteosarcoma (bone isoenzyme) (Homo sapiens, UniProt P05186).
T1 construct: Human Osteosarcoma obtained from nude mice (nu/nu) was frozen at -70° C. until required; from tissue; host or cells: human osteosarcoma tumour tissue obtained from nude mice (nu/nu); enzyme purified by n-butanol extraction, acetone and ammonium sulfate precipitation, Bio Gel-HT, DEAE Sepharose and Sephacryl S-400
T1 sequence (P05186 18-502 limits assumed): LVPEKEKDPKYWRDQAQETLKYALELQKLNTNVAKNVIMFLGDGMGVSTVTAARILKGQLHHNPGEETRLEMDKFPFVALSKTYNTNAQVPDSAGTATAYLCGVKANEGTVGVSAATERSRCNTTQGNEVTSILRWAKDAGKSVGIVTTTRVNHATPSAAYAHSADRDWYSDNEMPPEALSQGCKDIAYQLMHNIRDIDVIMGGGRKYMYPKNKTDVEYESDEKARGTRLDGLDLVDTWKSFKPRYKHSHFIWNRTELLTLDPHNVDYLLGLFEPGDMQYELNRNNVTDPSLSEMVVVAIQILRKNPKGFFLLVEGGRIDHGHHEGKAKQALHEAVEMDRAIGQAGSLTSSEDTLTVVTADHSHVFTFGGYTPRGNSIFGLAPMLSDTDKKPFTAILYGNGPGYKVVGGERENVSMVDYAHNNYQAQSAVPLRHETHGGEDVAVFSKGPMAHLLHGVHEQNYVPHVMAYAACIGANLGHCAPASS
Briefly: Inhibition of alkaline phosphatase by amino acids (release of p-nitrophenol from p-nitrophenylphosphate). The experiment is classed as biochemical. The following applies: amino acid at 5 mM in the reaction mixture; 4 mM p-nitrophenylphosphate, pH 10.2. As to the method:
The enzyme was assayed by measuring the release of p-nitrophenol from p-nitro-phenylphosphate at ambient temperature using a Gilford (model 250) recording spectrophotometer. The assay mixture (0.5 ml) contained 0.3M 2-amino-2-methyl-1-propanol, pH 10.2, 4 mM p-nitrophenylphosphate, 20 ug MgCl2 and 10 ul of diluted enzyme (u=micro). The formation of p-nitrophenol was measured spectrophotometrically at 410 nm. Units represent u moles of p-nitrophenol formed per minute at 22° C.
In order to define more clearly the isoenzyme, inhibition studies using amino acids were applied to the enzyme samples. The assay was carried out in the presence of L-homoarginine or L-phenylalanine at 5 mM concentration in the reaction mixtures respectively.
Based on the sensitivity to heat inactivation and inhibitions by L-homoarginine and L-phenylalanine, the properties of alkaline phosphatase from human osteosarcoma are consistent with those of the bone isoenzyme. It is generally considered in the art that the ALP from normal bone and osteosarcoma are probably identical.

`N=C(N)NCCCC[C@H](N)C(=O)O` [L-homoarginine]: the inhibition (usually the drop in the measured response relative to a control, in per cent) at 5000 µM was 64%. The value for `N[C@@H](Cc1ccccc1)C(=O)O` [L-phenylalanine] was 5%.

Source of the values: US5087573A, “Monoclonal antibody against bone alkaline phosphatase” (University of Kansas, priority 1988, dated 1992).
